Test results published in patent publication US8053473B2, “Antibacterial agent comprising 7, 10-dihydroxy-8(E)-octadecenoic acid” (Kyung Pook National University Industry-Academic …, priority 2007, dated 2011).

Columns and labels:
[1] = system: Staphylococcus epidermidis KCTC 1917; experiment: Antibacterial activity on solid agar medium 2; conditions: Gram positive, FIG. 7
[2] = system: Pseudomonas syringae pv. actinidae KACC 10659; type: cell-based; conditions: liquid medium; Gram negative; FIG. 8
[3] = system: Pseudomonas syringae pv. sesami KACC 10649; type: cell-based; conditions: liquid medium; Gram negative; FIG. 8
[4] = system: Escherichia coli ATCC 8739; experiment: Antibacterial activity on solid agar medium 2; conditions: Gram negative, FIG. 7
[5] = system: Listeria monocytogenes ATCC 19111; experiment: Antibacterial activity on solid agar medium 2; conditions: Gram positive, FIG. 7
[6] = system: Pseudomonas syringae pv. syringae KACC 10361; type: cell-based; conditions: liquid medium; Gram negative; FIG. 8
[7] = system: Corynebacterium glutamicum KACC 10784; type: cell-based; conditions: liquid medium; Gram positive; FIG. 8
[8] = system: Bacillus subtillis ATCC 6501; experiment: microbe, parasite or virus in culture; type: cell-based; conditions: ATCC6501, liquid YPD medium, OD540 up to 24 hours, read-out: minimal inhibitory concentration
[9] = system: Xanthomonas campestris KACC 10490; type: cell-based; conditions: liquid medium; Gram negative; FIG. 8
[10] = system: Ralstonia solanacearum KACC 10475; experiment: microbe, parasite or virus in culture; type: cell-based
[11] = system: Staphylococcus aureus ATCC 6538; experiment: Antibacterial activity on solid agar medium 2; conditions: Gram positive, FIG. 7
[12] = system: Bacillus subtilis ATCC 6501; experiment: Antibacterial activity on solid agar medium 2; conditions: Gram positive, FIG. 7
[13] = system: Salmonella typhimurium KCTC 2515; experiment: Antibacterial activity on solid agar medium (clear zone around filter paper)
[14] = system: Staphylococcus aureus KCTC 1621; experiment: as above; conditions: 5 mg/spot, similar level with Bactroban (3 mg Mupirocin), FIG. 5
[15] = system: Xanthomonas axonopodis pv. citri KACC 10443; experiment: Growth inhibition in liquid medium 2; type: cell-based; conditions: Gram negative, FIG. 8
Erwinia sp. KACC 10207 = type: cell-based; conditions: liquid medium; Gram negative; FIG. 8

## CCCCCCCC[C@H](O)/C=C/[C@@H](O)CCCCCC(=O)O [DOD, 7,10-dihydroxy-8(E)-octadecenoic acid]
[1]
  antibacterial activity: exhibited antibacterial activity
[2]
  growth inhibitory effect: had growth inhibitory effect
[3]
  growth inhibitory effect: had growth inhibitory effect
[4]
  antibacterial activity: exhibited antibacterial activity
[5]
  antibacterial activity: exhibited antibacterial activity
[6]
  growth inhibitory effect: had growth inhibitory effect
[7]
  growth inhibitory effect: had growth inhibitory effect
[8]
  MIC: < 125 µg/mL
[9]
  growth inhibitory effect: had growth inhibitory effect
[10]; Ralstonia solanacearum, KACC10475, 24 h, read-out: minimal inhibitory concentration
  MIC: < 125 µg/mL
[10]; liquid medium, Gram negative, FIG. 8
  growth inhibitory effect: had growth inhibitory effect
[11]
  antibacterial activity: exhibited antibacterial activity
[12]
  antibacterial activity: exhibited antibacterial activity
[13]; 5 mg/spot, similar level with Bactroban (3 mg Mupirocin), FIG. 5
  antibacterial activity (clear zone): high antibacterial activity
[13]; Gram negative, FIG. 7
  antibacterial activity: exhibited antibacterial activity
[14]
  antibacterial activity (clear zone): high antibacterial activity
[15]
  growth inhibitory effect: had growth inhibitory effect
Erwinia sp. KACC 10207
  growth inhibitory effect: had growth inhibitory effect
